Measurements: patent US12195482B1 (Arcus Biosciences, Inc., priority 2022, dated 2025)

Columns and labels:
p-AXL = biological target: T1, p-AXL (Homo sapiens, UniProt P30530); test: Axl phosphorylation inhibition ELISA in HEK293T cells transfected with NanoLuc-tagged AXL; type: cell-based; settings: 1 h compound incubation, media (OptiMEM)
T1 construct: expressed in transfected cells; host or cells: HEK293T
T1 sequence (P30530 26-894): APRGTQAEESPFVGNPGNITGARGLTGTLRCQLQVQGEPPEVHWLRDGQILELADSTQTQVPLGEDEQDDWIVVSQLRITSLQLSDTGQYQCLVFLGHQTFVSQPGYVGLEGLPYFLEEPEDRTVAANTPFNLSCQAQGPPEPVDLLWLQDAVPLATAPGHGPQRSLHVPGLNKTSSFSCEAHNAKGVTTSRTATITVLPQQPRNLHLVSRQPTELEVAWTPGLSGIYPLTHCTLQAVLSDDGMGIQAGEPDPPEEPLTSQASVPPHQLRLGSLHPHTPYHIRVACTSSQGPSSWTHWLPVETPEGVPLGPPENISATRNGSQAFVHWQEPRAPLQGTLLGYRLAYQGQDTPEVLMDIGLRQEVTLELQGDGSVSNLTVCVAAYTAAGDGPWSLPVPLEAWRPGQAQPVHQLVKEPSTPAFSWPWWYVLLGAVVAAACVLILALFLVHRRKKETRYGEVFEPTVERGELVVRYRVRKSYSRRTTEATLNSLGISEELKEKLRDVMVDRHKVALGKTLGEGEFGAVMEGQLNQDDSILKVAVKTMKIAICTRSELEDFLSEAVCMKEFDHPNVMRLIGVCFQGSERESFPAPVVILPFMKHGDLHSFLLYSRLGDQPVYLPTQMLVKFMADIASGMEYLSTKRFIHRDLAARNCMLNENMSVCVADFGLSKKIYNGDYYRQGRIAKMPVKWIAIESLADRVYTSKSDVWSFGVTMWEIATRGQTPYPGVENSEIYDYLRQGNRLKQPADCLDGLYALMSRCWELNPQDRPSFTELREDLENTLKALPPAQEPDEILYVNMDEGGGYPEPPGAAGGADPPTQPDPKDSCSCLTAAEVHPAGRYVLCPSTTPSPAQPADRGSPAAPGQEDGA
Outline: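 Phospho-AXL detected by luminescence of NanoLuc tag after capture of cell lysate on biotinylated anti-phospho-tyrosine mAb plates (2 h). Lysates came from transiently transfected HEK293T cells treated 1 h at 37° C with serial 2-fold dilutions (22 points). IC50 by standard 4-parameter logistic fitting.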

Axl = biological target: T2, Axl (Homo sapiens, UniProt P30530); test: Biochemical potency, HTRF KinEASE-TK kinase assay; design: purchased Invitrogen; settings: 5 nM AXL, 700 μM ATP
T2 sequence (P30530 26-894): T1 sequence (P30530 26-894)
Outline: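 Compounds preincubated 1 h at RT with enzyme in 50 mM HEPES pH 7.4, 10 mM MgCl2, 0.01% BSA, 1 mM DTT; reactions then ran 2 h at RT with 5 nM AXL or 1 nM TYRO3/MER, 800 nM TK substrate-biotin, 700 μM ATP, 1% DMSO. HTRF 665/620 ratio read; percent activity calculated.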

IC50 (p-AXL)	IC50 (Axl)	SMILES
100 to 1000 nM	< 100 nM	FC(F)c1cccnc1-c1ccc(-c2n[nH]c3ncc(-c4ccc5c(c4)CC[C@@H](N4C6COCC4C6)CC5)cc23)cc1 [Example 89, 6-[(7S)-3-[3-[4-[3-(Difluoromethyl)pyridin-2-yl]phenyl]-1H-pyrazolo[3,4-b]pyridin-5-yl]-6,7,8,9-tetrahydro-5H-benzo[7]annulen-7-yl]-3-oxa-6-azabicyclo[3.1.1]heptane]
< 100 nM	< 100 nM	Cc1nccnc1-c1ccc(-c2c[nH]c3ncc(-c4ccc5c(c4)CC[C@@H](N4C6COCC4C6)CC5)cc23)cc1 [Example 48, 6-[(7S)-2-{3-[4-(3-Methylpyrazin-2-yl)phenyl]-1H-pyrrolo[2,3-b]pyridin-5-yl}-6,7,8,9-tetrahydro-5H-benzo[7]annulen-7-yl]-3-oxa-6-azabicyclo[3.1.1]heptane]
< 100 nM	< 100 nM	Cc1ccnnc1-c1ccc(-c2n[nH]c3ncc(-c4ccc5c(c4)CC[C@@H](N4C6COCC4C6)CC5)cc23)nc1 [Example 56, 6-[(7S)-2-{3-[5-(4-Methylpyridazin-3-yl)pyridin-2-yl]-1H-pyrazolo[3,4-b]pyridin-5-yl}-6,7,8,9-tetrahydro-5H-benzo[7]annulen-7-yl]-3-oxa-6-azabicyclo[3.1.1]heptane]
< 100 nM	< 100 nM	CN(C)C(=O)c1ccccc1-c1ccc(-c2c[nH]c3ncc(-c4ccc5c(c4)CC[C@@H](N4C6COCC4C6)CC5)cc23)cc1 [Example 92, N,N-Dimethyl-4′-{5-[(7S)-7-{3-oxa-6-azabicyclo[3.1.1]heptan-6-yl}-6,7,8,9-tetrahydro-5H-benzo[7]annulen-2-yl]-1H-pyrrolo[2,3-b]pyridin-3-yl}-[1,1′-biphenyl]-2-carboxamide]
< 100 nM	< 100 nM	Cc1cnc(C)c(-c2ccc(-c3c[nH]c4ncc(-c5ccc6c(c5)CC[C@@](C)(N5CCC[C@H]5C)CC6)cc34)cc2)n1 [Example 58, 2,5-Dimethyl-3-(4-{5-[(7S)-7-methyl-7-[(2R)-2-methylpyrrolidin-1-yl]-6,7,8,9-tetrahydro-5H-benzo[7]annulen-2-yl]-1H-pyrrolo[2,3-b]pyridin-3-yl}phenyl)pyrazine]
< 100 nM	< 100 nM	Cc1cnc(C)c(-c2ccc(-c3c[nH]c4ncc(-c5ccc6c(c5)CC[C@@H](N5C7COCC5C7)CC6)cc34)cc2)n1 [Example 53, 6-[(7S)-2-{3-[4-(3,6-Dimethylpyrazin-2-yl)phenyl]-1H-pyrrolo[2,3-b]pyridin-5-yl}-6,7,8,9-tetrahydro-5H-benzo[7]annulen-7-yl]-3-oxa-6-azabicyclo[3.1.1]heptane]
< 100 nM	< 100 nM	Cc1cccnc1-c1ccc(-c2c[nH]c3ncc(-c4ccc5c(c4)CC[C@@H](N4C6COCC4C6)CC5)cc23)cc1 [Example 1, 6-[(7S)-2-{3-[4-(3-Methylpyridin-2-yl)phenyl]-1H-pyrrolo[2,3-b]pyridin-5-yl}-6,7,8,9-tetrahydro-5H-benzo[7]annulen-7-yl]-3-oxa-6-azabicyclo[3.1.1]heptane]
< 100 nM	< 100 nM	Cc1ccnnc1-c1ccc(-c2c[nH]c3ncc(-c4ccc5c(c4)CC[C@@H](N4C6COCC4C6)CC5)cc23)cc1 [Example 49, 6-[(7S)-2-{3-[4-(4-Methylpyridazin-3-yl)phenyl]-1H-pyrrolo[2,3-b]pyridin-5-yl}-6,7,8,9-tetrahydro-5H-benzo[7]annulen-7-yl]-3-oxa-6-azabicyclo[3.1.1]heptane]
< 100 nM	< 100 nM	COCCOc1cccnc1-c1ccc(-c2c[nH]c3ncc(-c4ccc5c(c4)CC[C@@H](N4C6COCC4C6)CC5)cc23)cc1 [Example 3, 6-[(7S)-2-(3-{4-[3-(2-Methoxyethoxy)pyridin-2-yl]phenyl}-1H-pyrrolo[2,3-b]pyridin-5-yl)-6,7,8,9-tetrahydro-5H-benzo[7]annulen-7-yl]-3-oxa-6-azabicyclo[3.1.1]heptane]
< 100 nM	< 100 nM	Cc1nccnc1-c1ccc(-c2c[nH]c3ncc(-c4ccc5c(c4)CC[C@@H](N4C6COCC4C6)CC5)cc23)nc1 [Example 54, 6-[(7S)-2-{3-[5-(3-Methylpyrazin-2-yl)pyridin-2-yl]-1H-pyrrolo[2,3-b]pyridin-5-yl}-6,7,8,9-tetrahydro-5H-benzo[7]annulen-7-yl]-3-oxa-6-azabicyclo[3.1.1]heptane]
100 to 1000 nM	< 100 nM	CS(=O)(=O)c1ccccc1-c1ccc(-c2c[nH]c3ncc(-c4ccc5c(c4)CC[C@@H](N4C6COCC4C6)CC5)cc23)cc1 [Example 93, 6-[(7S)-2-(3-{2′-Methanesulfonyl-[1,1′-biphenyl]-4-yl}-1H-pyrrolo[2,3-b]pyridin-5-yl)-6,7,8,9-tetrahydro-5H-benzo[7]annulen-7-yl]-3-oxa-6-azabicyclo[3.1.1]heptane]
< 100 nM	< 100 nM	Cc1ccnnc1-c1ccc(-c2c[nH]c3ncc(-c4ccc5c(c4)CC[C@@](C)(N4CCC[C@H]4C)CC5)cc23)cc1 [Example 51, 4-methyl-3-(4-{5-[(7S)-7-Methyl-7-[(2R)-2-methylpyrrolidin-1-yl]-6,7,8,9-tetrahydro-5H-benzo[7]annulen-2-yl]-1H-pyrrolo[2,3-b]pyridin-3-yl}phenyl)pyridazine]
< 100 nM	< 100 nM	N#Cc1cccnc1-c1ccc(-c2c[nH]c3ncc(-c4ccc5c(c4)CC[C@@H](N4C6COCC4C6)CC5)cc23)cc1 [Example 46, 2-(4-{5-[(7S)-7-{3-Oxa-6-azabicyclo[3.1.1]heptan-6-yl}-6,7,8,9-tetrahydro-5H-benzo[7]annulen-2-yl]-1H-pyrrolo[2,3-b]pyridin-3-yl}phenyl)pyridine-3-carbonitrile]
